Here are results for two compounds from patent US12251445B2, “Gamma-hydroxybutyrate delivering compounds and processes for making and using them” (Zevra Therapeutics, Inc., priority 2022, dated 2025).

The series is described as follows: Pharmacokinetics of GHB in plasma after oral gavage of GHB delivering compounds in rats. The conditions noted are these: vehicle water, mean conjugate/mean comparator.
[1] abbreviates: molar equivalent of 100 mg/kg NaGHB.
[2] abbreviates: dose equivalent to 80 mg/kg NaGHB.

SMILES strings stand for the structures.

As for `O=C1CCCO1` [GBL], under setting [1], the “% AUC0-4 hr vs study comparator sodium oxybate” value stood at 27% and the “% Cmax vs study comparator sodium oxybate” value was determined as 70%.

Take `CCOC(=O)OCCCC(=O)O` [O-(ethoxycarbonyl)-GHB]: under setting [2], the “% AUC0-4 hr vs study comparator sodium oxybate” value stood at 54% and the “% Cmax vs study comparator sodium oxybate” value is 51%.
